Experimental data reported in PubChem BioAssay AID2060893 (Molecular Pharmacology Branch, DTP, NCI, 2025).

Test system: K86415-001-R-J1-PDC complex spheroids, viability
Assay: Anticancer human tumor K86415-001-R-J1-PDC patient-derived lung adenocarcinoma cell line growth inhibition [RAS]
Conditions: for IC50: curve of first compound; for viability, T/C: stronger effect = lower value
In short: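 Multi-cell-type spheroids: tumor cells plus HUVEC endothelial cells and mesenchymal stem cells. RAS-pathway inhibitors were combined with targeted agents, each dosed in half-log steps down from clinical Cmax, or from 10 microM when Cmax was unknown.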
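Further: spheroids exposed to agents for seven days before readout.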

With `CC1(C)CCC(Nc2ncc(C(F)(F)F)c(-c3c[nH]c4c(P(C)(C)=O)c(C#N)ccc34)n2)CN1` (configuration not stated) + C#Cc1c(F)ccc2cc(O)cc(-c3ncc4c(N5CC6CCC(C5)N6)nc(OCC56CCCN5CC(F)C6)nc4c3F)c12 the IC50 (second compound 0.0316 µM) was 300 nM, the IC50 (second compound 0.1 µM) was greater than 300 nM and the IC50 (second compound 0.316 µM) was 300 nM. The IC50 (second compound 1 µM) was greater than 300 nM, the IC50 (second compound 3.16 µM) was greater than 300 nM and the IC50 (second compound 10 µM) was less than 0.949 nM. For the same compound, the viability, T/C (second compound 0.0316 µM, first compound 0.000949 µM) was 103%, the viability, T/C (second compound 0.0316 µM, first compound 0.003 µM) was 131% and the viability, T/C (second compound 0.0316 µM, first compound 0.00949 µM) was 75.3%. It also gave a viability, T/C (second compound 0.0316 µM, first compound 0.03 µM) of 59.8%, a viability, T/C (second compound 0.0316 µM, first compound 0.0949 µM) of 56.6% and a viability, T/C (second compound 0.0316 µM, first compound 0.3 µM) of 55.5%. The viability, T/C (second compound 0.1 µM, first compound 0.000949 µM) was 103%, the viability, T/C (second compound 0.1 µM, first compound 0.003 µM) was 118% and the viability, T/C (second compound 0.1 µM, first compound 0.00949 µM) was 77.3%. For the same compound, the viability, T/C (second compound 0.1 µM, first compound 0.03 µM) was 62%, the viability, T/C (second compound 0.1 µM, first compound 0.0949 µM) was 57.4% and the viability, T/C (second compound 0.1 µM, first compound 0.3 µM) was 61%. For the same compound, the viability, T/C (second compound 0.316 µM, first compound 0.000949 µM) was 101%, the viability, T/C (second compound 0.316 µM, first compound 0.003 µM) was 119% and the viability, T/C (second compound 0.316 µM, first compound 0.00949 µM) was 78.3%. It also gave a viability, T/C (second compound 0.316 µM, first compound 0.03 µM) of 60.4%, a viability, T/C (second compound 0.316 µM, first compound 0.0949 µM) of 62.8% and a viability, T/C (second compound 0.316 µM, first compound 0.3 µM) of 61.9%. It also gave a viability, T/C (second compound 1 µM, first compound 0.000949 µM) of 78.5%, a viability, T/C (second compound 1 µM, first compound 0.003 µM) of 103% and a viability, T/C (second compound 1 µM, first compound 0.00949 µM) of 76.5%. It also gave a viability, T/C (second compound 1 µM, first compound 0.03 µM) of 57.4%, a viability, T/C (second compound 1 µM, first compound 0.0949 µM) of 60.6% and a viability, T/C (second compound 1 µM, first compound 0.3 µM) of 65.5%. It also gave a viability, T/C (second compound 3.16 µM, first compound 0.000949 µM) of 39.1%, a viability, T/C (second compound 3.16 µM, first compound 0.003 µM) of 64.3% and a viability, T/C (second compound 3.16 µM, first compound 0.00949 µM) of 60.5%. It also gave a viability, T/C (second compound 3.16 µM, first compound 0.03 µM) of 49.5%, a viability, T/C (second compound 3.16 µM, first compound 0.0949 µM) of 47.9% and a viability, T/C (second compound 3.16 µM, first compound 0.3 µM) of 55.8%. The viability, T/C (second compound 10 µM, first compound 0.000949 µM) was 19%, the viability, T/C (second compound 10 µM, first compound 0.003 µM) was 22% and the viability, T/C (second compound 10 µM, first compound 0.00949 µM) was 26.7%. The viability, T/C (second compound 10 µM, first compound 0.03 µM) was 29.1%, the viability, T/C (second compound 10 µM, first compound 0.0949 µM) was 33.6% and the viability, T/C (second compound 10 µM, first compound 0.3 µM) was 34.3%.
